{"source": "patent US11331329B2", "about": "“Fucosylated oligosaccharides for prevention of coronavirus infection” (Glycosyn LLC, priority 2020, dated 2022)", "origin": "cited, not measured here", "details": "oral"}
{"substance": "2′-Fucosyllactose [2′-FL]", "values": [{"measurement": "toxicity", "setting": "natural component of human milk", "value": "non-toxic"}, {"measurement": "high doses that may lead to mild gut discomfort and a reversible osmotic diarrhea", "setting": "adult", "value": "> 10", "unit": "g per day"}]}
